Source: PubChem BioAssay (NCI)
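Step 1: Grow cells in 96-well plates. Step 2: Expose to compound for 48 hours at 5 concentrations. Step 3: Interpolate endpoints linearly; if unreached, use highest concentration. TGI denotes the concentration required for complete inhibition of growth.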

Experiments:
Assay in all cases: inhibition of tumour cell growth, NCI panel, 48 h
[1] = test system: OVCAR-5 ovarian
[2] = test system: NCI-H23 lung
[3] = test system: MCF7 breast
[4] = test system: NCI-H460 lung
[5] = test system: OVCAR-4 ovarian
[6] = test system: HCC-2998 colon
[7] = test system: HS 578T breast
[8] = test system: U251 CNS
[9] = test system: UACC-257 melanoma
[10] = test system: 786-0 renal
[11] = test system: SF-295 CNS
[12] = test system: MALME-3M melanoma
[13] = test system: MDA-MB-435
[14] = test system: HOP-92 NSCLC
[15] = test system: CAKI-1 renal
[16] = test system: SN12C renal
[17] = test system: SK-MEL-28 melanoma
[18] = test system: TK-10 renal
[19] = test system: DU-145 prostate
[20] = test system: MDA-MB-231 breast
[21] = test system: MOLT-4 leukemia
[22] = test system: A498 renal
[23] = test system: M14 melanoma
[24] = test system: NCI-H522 lung
[25] = test system: NCI/ADR-RES ovarian
[26] = test system: SR leukemia
[27] = test system: BT-549 breast
[28] = test system: KM12 colon
[29] = test system: HOP-62 NSCLC
[30] = test system: SNB-19 CNS
[31] = test system: RXF 393 renal
[32] = test system: OVCAR-8 ovarian
[33] = test system: ACHN renal
[34] = test system: IGROV1 ovarian
[35] = test system: PC-3 prostate
[36] = test system: EKVX NSCLC
[37] = test system: HCT-15 colon
[38] = test system: UO-31 renal
[39] = test system: SW-620 colon
[40] = test system: UACC-62 melanoma
[41] = test system: SK-MEL-5 melanoma
[42] = test system: K-562 leukemia
[43] = test system: OVCAR-3 ovarian
[44] = test system: A549 NSCLC
[45] = test system: T-47D breast
[46] = test system: SK-MEL-2 melanoma
[47] = test system: MDA-N
[48] = test system: SNB-75 CNS
[49] = test system: LOX IMVI melanoma
[50] = test system: SF-268 CNS
[51] = test system: NCI-H226 lung
[52] = test system: HCT-116 colon
[53] = test system: CCRF-CEM leukemia
[54] = test system: HT29 colon
[55] = test system: M19-MEL melanoma
[56] = test system: HL-60(TB) leukemia
[57] = test system: DMS 114 small cell lung
[58] = test system: RPMI-8226 leukemia
[59] = test system: SK-OV-3 ovarian
[60] = test system: DMS 273 small cell lung
[61] = test system: LXFL 529 NSCLC
[62] = test system: KM20L2 colon
[63] = test system: SF-539 CNS
[64] = test system: DLD-1 colon
[65] = test system: HOP-18 NSCLC
[66] = test system: COLO 205 colon

## N=C(N)c1ccc(/C=C/c2ccc(C(=N)N)cc2)cc1
[1]
  TGI: > 100 µM
[2]
  TGI: > 100 µM
[3]
  TGI: > 100 µM
[4]
  TGI: > 100 µM
[5]
  TGI: > 100 µM
[6]
  TGI: > 100 µM
[7]
  TGI: > 100 µM
[8]
  TGI: > 100 µM
[9]
  TGI: > 100 µM
[10]
  TGI: > 100 µM
[11]
  TGI: > 100 µM
[12]
  TGI: > 100 µM
[13]
  TGI: > 100 µM
[14]
  TGI: > 100 µM
[15]
  TGI: > 100 µM
[16]
  TGI: > 100 µM
[17]
  TGI: > 100 µM
[18]
  TGI: 65.2 µM
[19]
  TGI: > 100 µM
[20]
  TGI: > 100 µM
[21]
  TGI: > 100 µM
[22]
  TGI: 73.7 µM
[23]
  TGI: > 100 µM
[24]
  TGI: > 100 µM
[25]
  TGI: > 100 µM
[26]
  TGI: > 100 µM
[27]
  TGI: > 100 µM
[28]
  TGI: > 100 µM
[29]
  TGI: > 100 µM
[30]
  TGI: > 100 µM
[31]
  TGI: > 100 µM
[32]
  TGI: > 100 µM
[33]
  TGI: > 100 µM
[34]
  TGI: > 100 µM
[35]
  TGI: > 100 µM
[36]
  TGI: > 100 µM
[37]
  TGI: > 100 µM
[38]
  TGI: > 100 µM
[39]
  TGI: > 100 µM
[40]
  TGI: > 100 µM
[41]
  TGI: > 100 µM
[42]
  TGI: > 100 µM
[43]
  TGI: > 100 µM
[44]
  TGI: > 100 µM
[45]
  TGI: > 100 µM
[46]
  TGI: 87.3 µM
[47]
  TGI: > 100 µM
[48]
  TGI: > 100 µM
[49]
  TGI: > 100 µM
[50]
  TGI: > 100 µM
[51]
  TGI: > 100 µM
[52]
  TGI: > 100 µM
[53]
  TGI: > 100 µM
[54]
  TGI: > 100 µM

## COC(=O)[C@@]12C3=NO[C@]1(C(=O)OC)C(O[Si](C)(C)C(C)(C)C)[C@H]1OC(C)(C)O[C@H]1[C@@H]2C(OCc1ccccc1)CC3 (stereo partly specified)
[2]
  TGI: > 100 µM
[4]
  TGI: 23.7 µM
[55]
  TGI: > 100 µM
[5]
  TGI: 97.2 µM
[6]
  TGI: > 100 µM
[8]
  TGI: > 100 µM
[10]
  TGI: > 100 µM
[11]
  TGI: > 100 µM
[56]
  TGI: > 100 µM
[14]
  TGI: 22.6 µM
[16]
  TGI: > 100 µM
[17]
  TGI: > 100 µM
[18]
  TGI: > 100 µM
[21]
  TGI: > 100 µM
[22]
  TGI: > 100 µM
[23]
  TGI: > 100 µM
[57]
  TGI: > 100 µM
[28]
  TGI: > 100 µM
[30]
  TGI: 99.8 µM
[32]
  TGI: > 100 µM
[33]
  TGI: 28 µM
[58]
  TGI: > 100 µM
[34]
  TGI: > 100 µM
[36]
  TGI: > 100 µM
[37]
  TGI: > 100 µM
[59]
  TGI: > 100 µM
[38]
  TGI: > 100 µM
[39]
  TGI: > 100 µM
[40]
  TGI: > 100 µM
[41]
  TGI: > 100 µM
[60]
  TGI: > 100 µM
[61]
  TGI: > 100 µM
[62]
  TGI: > 100 µM
[42]
  TGI: > 100 µM
[43]
  TGI: > 100 µM
[44]
  TGI: > 100 µM
[46]
  TGI: > 100 µM
[48]
  TGI: 58 µM
[49]
  TGI: > 100 µM
[63]
  TGI: > 100 µM
[64]
  TGI: > 100 µM
[51]
  TGI: > 100 µM
[65]
  TGI: > 100 µM
[52]
  TGI: > 100 µM
[53]
  TGI: > 100 µM
[54]
  TGI: > 100 µM
[66]
  TGI: > 100 µM
